Data reported in US20140163100A1, “Methods of Treating Multiple Sclerosis and Preserving and/or Increasing Myelin Content” (BIOGEN IDEC MA INC., priority 2011, published 2014).
Counter-ions that a name gives are not always drawn. Like-named read-outs stand apart in the source and are kept apart here.

Key:
[1] = system: subjects with relapsing-remitting multiple sclerosis; experiment: First Phase 3 clinical trial: relapse and disability efficacy; assay type: in vivo, human; details: for reduction of ARR vs placebo / reduction of risk of confirmed, 12-week disability progression: 2 years; for annualized relapse rate (ARR): 2 years (placebo 0.36); for reduction of risk of confirmed, 12-week disability progression: EDSS; for reduction of proportion of subjects relapsing compared with placebo: at 2 years
Experimental: The primary endpoint of the study in Example 1 was the proportion of subjects relapsing at 2 years, with relapses confirmed by an independent neurology evaluation committee (“INEC”) to ensure consistent and accurate reporting across sites. Secondary clinical efficacy endpoints at 2 years were the annualized relapse rate (“ARR”) and disability progression using EDSS. Efficacy analyses were conducted on the intention-to-treat population.

[2] = system: subjects with relapsing-remitting multiple sclerosis; experiment: First Phase 3 clinical trial: quality of life (SF-36, VAS); assay type: in vivo, human; details: for mean SF-36 PCS score: at 2 years (placebo 42.0); for SF-36 Mental Component Scale score: at 2 years (placebo 44.6); for mean VAS score (global impression of well-being): at 2 years (placebo 60.3)
Experimental: Subjects participating in the study described in Example 1 were provided an SF-36 questionnaire to measure the subjects' health status and health-related quality of life (“QoL”) at baseline, 6, 12, and 24 months, on eight multi-item, 100-point scales, with higher scores indicating higher QoL. These scores were used to calculate the Physical Component Summary (“PCS”) and Mental Component Summary (“MCS”) scores. In addition, the subjects' global impression of well-being was assessed at baseline and every 3 months using a 100-point, visual analogue scale (VAS) with higher score indicating improvement in well-being.

[3] = system: subjects with relapsing-remitting multiple sclerosis; experiment: First Phase 3 clinical trial: magnetization transfer ratio (MTR) substudy; assay type: in vivo, human
Source text: The study described in Example 1 included a substudy to examine change in magnetization transfer ratio (“MTR”) with treatment. MTR imaging has been proposed for use as a biomarker of changes in the myelin content of brain white matter. The aim of the study was to determine change in brain and lesion MTR in RR-MS. MTR scans were obtained in a subset of subjects at baseline and 6, 12 and 24 months, using manufacturer-supplied MT pulse sequences. MTR substudies were implemented at 64 of 76 MRI sites (84%) and included a total of 540 subjects: 176 in the dimethyl fumarate 240 mg bid group, 184 in the dimethyl fumarate 240 mg tid group, and 180 in the placebo group.

[4] = system: subjects with relapsing-remitting multiple sclerosis; experiment: First Phase 3 clinical trial: MRI lesion loads; assay type: in vivo, human; details: 2 years
Experimental: Subjects from 76 sites out of 198 participating in the study described in Example 1 had MRI scans at baseline, 24 weeks, 1 year and 2 years. Number of new or newly enlarging T2 lesions and number of gadolinium-enhancing (Gd+) lesions at 2 years were secondary endpoints of the study. Analyses were conducted on the MRI intention-to-treat population.

[5] = human, in vivo
Experimental: A second randomized, double-blind, placebo-controlled, multicenter, phase 3 clinical trial was conducted to evaluate the efficacy and safety of dimethyl fumarate over 2 years in subjects with relapsing-remitting multiple sclerosis (“RR-MS”).
Subjects 18-55 years of age with RR-MS and an Expanded Disability Status Scale score of 0.0-5.0 (inclusive) and having one or more relapses in the prior 12 months or one or more Gd^+ lesions in the prior 6 weeks were eligible for enrolment. Subjects were randomly assigned to placebo, dimethyl fumarate 240 mg PO twice daily (BID), dimethyl fumarate three times daily (TID), glatiramer acetate 20 mg SC once daily (QD).

[6] = First Phase 3 clinical trial: safety and tolerability (adverse events); assay type: in vivo, human
Experimental: Safety and tolerability were assessed by continuous adverse event (“AE”) monitoring and laboratory tests at all monthly visits. Additionally, physical examination, vital signs, and 12-lead ECG were evaluated. As an ethical consideration, subjects' reconsent was required following any protocol-defined disability progression or relapse.

[7] = system: mouse MS model; experiment: Mouse MS model, neuroprotective effects; assay type: in vivo; details: mouse MS model with features of advanced stages of chronic forms of MS
Source text: Although many well characterized rodent and primate models for MS exist, only recently have the characteristic features of progressive MS been identified in select animal models.

With `COC(=O)/C=C/C(=O)OC` [dimethyl fumarate] the “reduction of ARR vs placebo” value ([1]; 240 mg BID) was 53%, the “annualized relapse rate (ARR)” value ([1]; 240 mg BID) was 0.17 and the “reduction of risk of confirmed, 12-week disability progression” value ([1]; 240 mg BID) was 38%. The “Annualized relapse rate at 2 years, % Reduction vs. Placebo” value ([1]; 240 mg BID, <40 years) was 63%, the “Proportion of patients relapsed at 2 years, % Reduction vs. Placebo” value (from here on “Proportion … % Reduction vs. Placebo”) ([1]; 240 mg BID, <40 years) was 59% and the “Time to confirmed disability progression at 2 years, % Reduction vs. Placebo” value (shortened to “Time … % Reduction vs. Placebo”) ([1]; 240 mg BID, <40 years) was 62%. For the same compound, the “reduction of proportion of subjects relapsing compared with placebo” value ([1]; 240 mg BID) was 49%, the “Annualized relapse rate at 2 years, % Reduction vs. Placebo” value ([1]; 240 mg BID, ≧40 years) was 34% and the “Proportion … % Reduction vs. Placebo” value ([1]; 240 mg BID, ≧40 years) was 26%. For the same compound, the “Time … % Reduction vs. Placebo” value ([1]; 240 mg BID, ≧40 years) was 8%, the “Annualized relapse rate at 2 years, % Reduction vs. Placebo” value ([1]; 240 mg TID, <40 years) was 59% and the “Proportion … % Reduction vs. Placebo” value ([1]; 240 mg TID, <40 years) was 56%. The “Time … % Reduction vs. Placebo” value ([1]; 240 mg TID, <40 years) was 38%, the “Annualized relapse rate at 2 years, % Reduction vs. Placebo” value ([1]; 240 mg TID, ≧40 years) was 29% and the “Proportion … % Reduction vs. Placebo” value ([1]; 240 mg TID, ≧40 years) was 37%. For the same compound, the “Time … % Reduction vs. Placebo” value ([1]; 240 mg TID, ≧40 years) was 32%, the “reduction of ARR vs placebo” value ([1]; TID) was 48% and the “annualized relapse rate (ARR)” value ([1]; TID) was 0.19. The “reduction of risk of confirmed, 12-week disability progression” value ([1]; TID) was “approximately 34%”, the “reduction of proportion of subjects relapsing compared with placebo” value ([1]; TID) was 50% and the “efficacy by age subgroup” value ([1]; subjects under 40 years vs 40 years or older, 240 mg BID and TID) was “more efficacious in subjects under 40 years of age”. For the same compound, the “mean SF-36 PCS score” value ([2]; 240 mg BID) was 43.4, the “SF-36 Mental Component Scale score” value ([2]; 240 mg BID) was 45.5 and the “mean VAS score (global impression of well-being)” value ([2]; 240 mg BID) was 64.3. The “mean SF-36 PCS score” value ([2]; TID) was 44.2, the “SF-36 Mental Component Scale score” value ([2]; TID) was 46.1 and the “mean VAS score (global impression of well-being)” value ([2]; TID) was 65.7. The “increase from baseline in whole brain MTR” value ([3]; 240 mg bid (placebo −0.386%)) was 0.129%, the “increase from baseline in normal appearing brain tissue MTR” value ([3]; 240 mg bid (placebo −0.392%)) was 0.190% and the “increase from baseline in whole brain MTR” value ([3]; 240 mg tid (placebo −0.386%)) was 0.096%. For the same compound, the “increase from baseline in normal appearing brain tissue MTR” value ([3]; 240 mg tid (placebo −0.392%)) was 0.115%, the “reduction of mean number of Gd+ lesions compared with placebo” value ([4]; 240 mg BID) was 94% and the “reduction of mean number of new or newly enlarging T2 lesions compared with placebo” value ([4]; 240 mg BID) was 85%. The “reduction of mean number of Gd+ lesions compared with placebo” value ([4]; TID) was 72%, the “reduction of mean number of new or newly enlarging T2 lesions compared with placebo” value ([4]; TID) was 74% and the “most frequently reported AEs associated with dimethyl fumarate” value [5] was “flushing, diarrhea, nausea, upper respiratory tract infection, abdominal pain, and proteinuria”. For the same compound, the “AEs reported by subjects” value ([5]; 2 years) was 92%, the “subjects discontinuing treatment due to AEs (number)” value ([5]; 2 years) was 41 and the “subjects discontinuing treatment due to AEs (percent)” value ([5]; 2 years) was 12%. For the same compound, the “subjects withdrew from the study” value ([5]; 2 years) was 21%, the deaths ([6]; dimethyl fumarate TID arm, result of a motor vehicle accident) was “One death” and the “MS relapse reported as AE” value ([6]; human, in vivo) was 27%. The opportunistic infections ([6]; human, in vivo) was “no opportunistic infections were observed”, the “AEs reported by subjects” value ([6]; human, in vivo, 2 years) was 95% and the “Incidence of infections and infestations” value ([6]; human, in vivo, 2 years) was 64-68%. For the same compound, the “Incidence of severe infections and infestations” value ([6]; human, in vivo, 2 years) was 2-3%, the “Severe AEs reported” value ([6]; human, in vivo, 2 years) was 17% and the “subjects discontinuing treatment due to AEs (number)” value ([6]; human, in vivo, 2 years) was 68. The “subjects discontinuing treatment due to AEs (percent)” value ([6]; human, in vivo, 2 years) was 16%, the subjects reporting flushing ([6]; human, in vivo, 2 years) was 32% and the “subjects withdrew from the study” value ([6]; human, in vivo, 2 years) was “approximately 23%”. For the same compound, the neuroprotective effects [7] was “reduction in demyelination and axonal damage”.
